According to paper PMC7156458, “Synthetic biology based construction of biological activity-related library of fungal decalin-containing diterpenoid pyrones” (Nature Communications, 2020):

Biological target: Aβ42 (Homo sapiens, UniProt P05067)
Experiment: Th-T (thioflavin-T) assay of Aβ42 aggregation
Assay type: biochemical
Conditions: for Th-T fluorescence, mean of three wells: compound at 50

Chain of Aβ42 (P05067 672-713): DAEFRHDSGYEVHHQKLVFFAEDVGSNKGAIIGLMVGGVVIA

Structure (SMILES): C=C1CC[C@@H]2[C@](C)(CC[C@H]3O[C@H](C=C(C)C)C[C@@]23C)[C@@H]1Cc1c(OC)oc(CO)c(C)c1=O [Compound 20]
- Th-T fluorescence, mean of three wells (reading M54 of time course): 2.134
- Th-T fluorescence, mean of three wells (reading M55 of time course): 2.09
- Th-T fluorescence, mean of three wells (reading M56 of time course): 2.129
- Th-T fluorescence, mean of three wells (reading M57 of time course): 2.102
- Th-T fluorescence, mean of three wells (reading M58 of time course): 2.115
- Th-T fluorescence, mean of three wells (reading M59 of time course): 2.0923
- Th-T fluorescence, mean of three wells (reading M60 of time course): 2.089
- Th-T fluorescence, mean of three wells (reading M61 of time course): 2.104
- Th-T fluorescence, mean of three wells (reading M62 of time course): 2.094
- Th-T fluorescence of Aβ42 with compound, mean of three wells (Fig. 7a source data) (concentration 10, unit not given, time-course reading M129): 3.179
- Th-T fluorescence of Aβ42 with compound, mean of three wells (Fig. 7a source data) (concentration 10, unit not given, time-course reading M130): 3.204
- Th-T fluorescence of Aβ42 with compound, mean of three wells (Fig. 7a source data) (concentration 10, unit not given, time-course reading M131): 3.189
- Th-T fluorescence of Aβ42 with compound, mean of three wells (Fig. 7a source data) (concentration 10, unit not given, time-course reading M132): 3.188
- Th-T fluorescence of Aβ42 with compound, mean of three wells (Fig. 7a source data) (concentration 10, unit not given, time-course reading M133): 3.166
- Th-T fluorescence of Aβ42 with compound, mean of three wells (Fig. 7a source data) (concentration 10, unit not given, time-course reading M134): 3.1894
- Th-T fluorescence of Aβ42 with compound, mean of three wells (Fig. 7a source data) (concentration 10, unit not given, time-course reading M135): 3.162
- Th-T fluorescence of Aβ42 with compound, mean of three wells (Fig. 7a source data) (concentration 10, unit not given, time-course reading M136): 3.159
- Th-T fluorescence of Aβ42 with compound, mean of three wells (Fig. 7a source data) (concentration 10, unit not given, time-course reading M137): 3.15
- Th-T fluorescence of Aβ42 with compound, mean of three wells (Fig. 7a source data) (concentration 10, unit not given, time-course reading M138): 3.16
- Th-T fluorescence of Aβ42 with compound, mean of three wells (Fig. 7a source data) (concentration 10, unit not given, time-course reading M139): 3.169
- Th-T fluorescence of Aβ42 with compound, mean of three wells (Fig. 7a source data) (concentration 10, unit not given, time-course reading M140): 3.158
- Th-T fluorescence of Aβ42 with compound, mean of three wells (Fig. 7a source data) (concentration 10, unit not given, time-course reading M141): 3.147
- Th-T fluorescence of Aβ42 with compound, mean of three wells (Fig. 7a source data) (concentration 10, unit not given, time-course reading M142): 3.131
- Th-T fluorescence of Aβ42 with compound, mean of three wells (Fig. 7a source data) (concentration 10, unit not given, time-course reading M143): 3.135
- Th-T fluorescence of Aβ42 with compound, mean of three wells (Fig. 7a source data) (concentration 10, unit not given, time-course reading M144): 3.139
- Th-T fluorescence of Aβ42 with compound, mean of three wells (Fig. 7a source data) (concentration 10, unit not given, time-course reading M145): 3.1201
- Th-T fluorescence of Aβ42 with compound, mean of three wells (Fig. 7a source data) (concentration 20, unit not given, time-course reading M129): 3.1
- Th-T fluorescence of Aβ42 with compound, mean of three wells (Fig. 7a source data) (concentration 20, unit not given, time-course reading M130): 3.095
- Th-T fluorescence of Aβ42 with compound, mean of three wells (Fig. 7a source data) (concentration 20, unit not given, time-course reading M131): 3.098
- Th-T fluorescence of Aβ42 with compound, mean of three wells (Fig. 7a source data) (concentration 20, unit not given, time-course reading M132): 3.079
- Th-T fluorescence of Aβ42 with compound, mean of three wells (Fig. 7a source data) (concentration 20, unit not given, time-course reading M133): 3.072
- Th-T fluorescence of Aβ42 with compound, mean of three wells (Fig. 7a source data) (concentration 20, unit not given, time-course reading M134): 3.073
- Th-T fluorescence of Aβ42 with compound, mean of three wells (Fig. 7a source data) (concentration 20, unit not given, time-course reading M135): 3.076
- Th-T fluorescence of Aβ42 with compound, mean of three wells (Fig. 7a source data) (concentration 20, unit not given, time-course reading M136): 3.0605
- Th-T fluorescence of Aβ42 with compound, mean of three wells (Fig. 7a source data) (concentration 20, unit not given, time-course reading M137): 3.049
- Th-T fluorescence of Aβ42 with compound, mean of three wells (Fig. 7a source data) (concentration 20, unit not given, time-course reading M138): 3.042
- Th-T fluorescence of Aβ42 with compound, mean of three wells (Fig. 7a source data) (concentration 20, unit not given, time-course reading M139): 3.041
- Th-T fluorescence of Aβ42 with compound, mean of three wells (Fig. 7a source data) (concentration 20, unit not given, time-course reading M140): 3.025
- Th-T fluorescence of Aβ42 with compound, mean of three wells (Fig. 7a source data) (concentration 20, unit not given, time-course reading M141): 3.02
- Th-T fluorescence of Aβ42 with compound, mean of three wells (Fig. 7a source data) (concentration 20, unit not given, time-course reading M142): 3.019
- Th-T fluorescence of Aβ42 with compound, mean of three wells (Fig. 7a source data) (concentration 20, unit not given, time-course reading M143): 3.013
- Th-T fluorescence of Aβ42 with compound, mean of three wells (Fig. 7a source data) (concentration 20, unit not given, time-course reading M144): 3.009
- Th-T fluorescence of Aβ42 with compound, mean of three wells (Fig. 7a source data) (concentration 20, unit not given, time-course reading M145): 2.993
- Th-T fluorescence of Aβ42 with compound, mean of three wells (Fig. 7a source data) (concentration 50, unit not given, time-course reading M129): 2.106
- Th-T fluorescence of Aβ42 with compound, mean of three wells (Fig. 7a source data) (concentration 50, unit not given, time-course reading M130): 2.116
- Th-T fluorescence of Aβ42 with compound, mean of three wells (Fig. 7a source data) (concentration 50, unit not given, time-course reading M131): 2.114
- Th-T fluorescence of Aβ42 with compound, mean of three wells (Fig. 7a source data) (concentration 50, unit not given, time-course reading M132): 2.119
- Th-T fluorescence of Aβ42 with compound, mean of three wells (Fig. 7a source data) (concentration 50, unit not given, time-course reading M133): 2.114
- Th-T fluorescence of Aβ42 with compound, mean of three wells (Fig. 7a source data) (concentration 50, unit not given, time-course reading M134): 2.123
- Th-T fluorescence of Aβ42 with compound, mean of three wells (Fig. 7a source data) (concentration 50, unit not given, time-course reading M135): 2.118
- Th-T fluorescence of Aβ42 with compound, mean of three wells (Fig. 7a source data) (concentration 50, unit not given, time-course reading M136): 2.117
- Th-T fluorescence of Aβ42 with compound, mean of three wells (Fig. 7a source data) (concentration 50, unit not given, time-course reading M137): 2.122
- Th-T fluorescence of Aβ42 with compound, mean of three wells (Fig. 7a source data) (concentration 50, unit not given, time-course reading M138): 2.119
- Th-T fluorescence of Aβ42 with compound, mean of three wells (Fig. 7a source data) (concentration 50, unit not given, time-course reading M139): 2.116
- Th-T fluorescence of Aβ42 with compound, mean of three wells (Fig. 7a source data) (concentration 50, unit not given, time-course reading M140): 2.117
- Th-T fluorescence of Aβ42 with compound, mean of three wells (Fig. 7a source data) (concentration 50, unit not given, time-course reading M141): 2.123
- Th-T fluorescence of Aβ42 with compound, mean of three wells (Fig. 7a source data) (concentration 50, unit not given, time-course reading M142): 2.118
